Measurements reported in US20260022143A1, “Cyclic Peptide Inhibitors of IL-23” (JANSSEN PHARMACEUTICA NV, priority 2022, published 2026).
Starred links: 1 amine or outer side, 2 acyl side, 3 side chain; linkers in the order of their positions; H or OH if unused. Positions of bridges follow the written chain, without caps; N, C: chain ends. Non-standard residues stand in square brackets, D forms with d. Residues, ends and D or L forms follow the SMILES beside them. *: point of attachment. Me3N+(CH2)2O(CH2)2O(CH2)2CO = C[N+](C)(C)CCOCCOCCC(=O)*; X39 = NCCc1cn(-c2ccc(C[C@H](N[*:1])C(=O)[*:2])cc2)nn1; Trp(7-Me) = Cc1cccc2c(C[C@H](N)C(=O)O)c[nH]c12; Abu(4-yl) = O=C([C@H](CC[*:3])N[*:1])[*:2]; Lys(Me3) = C[N+](C)(C)CCCC[C@H](N)C(=O)O; 2Nal = N[C@@H](Cc1ccc2ccccc2c1)C(=O)O; 3Pal = N[C@@H](Cc1cccnc1)C(=O)O; Lys(Me) = CNCCCC[C@H](N)C(=O)O; Pen = CC(C)(S)[C@H](N)C(=O)O; αMeC = C[C@](N)(CS)C(=O)O; Thp = NC1(C(=O)O)CCOCC1; X3 = C[N+](C)(C)CCCCC*; Sar = CNCC(=O)O

Tests used:
[1] = Exposed Polar Surface Area (EPSA); assay type: physicochemical; details: SFC on Chirex 3014 column; sample 1 mM DMSO stock; read-out: EPSA
How it was run: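 Compounds, as 1 mM DMSO stock, were injected in duplicate onto an SFC Chirex 3014 column at 35 °C and eluted with a CO2/methanol (20 mM ammonium formate) gradient. EPSA values in Å^2 were derived from retention times using a linear fit to eight calibration standards, reinjected every 20 compounds.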

[2] = target: T1, IL-23R (Homo sapiens, UniProt Q5VWK5); test: IL23R Reporter Assay; assay type: cell-based; details: HEK293 cells containing IL-23R, IL-12RP1 and STAT-inducible firefly luciferase reporter; 10 ng/mL IL-23 (EC90); 5 h at 37° C.; read-out: IL23R Reporter Assay
T1 construct: host or cells: HEK293
T1 sequence (Q5VWK5 24-629): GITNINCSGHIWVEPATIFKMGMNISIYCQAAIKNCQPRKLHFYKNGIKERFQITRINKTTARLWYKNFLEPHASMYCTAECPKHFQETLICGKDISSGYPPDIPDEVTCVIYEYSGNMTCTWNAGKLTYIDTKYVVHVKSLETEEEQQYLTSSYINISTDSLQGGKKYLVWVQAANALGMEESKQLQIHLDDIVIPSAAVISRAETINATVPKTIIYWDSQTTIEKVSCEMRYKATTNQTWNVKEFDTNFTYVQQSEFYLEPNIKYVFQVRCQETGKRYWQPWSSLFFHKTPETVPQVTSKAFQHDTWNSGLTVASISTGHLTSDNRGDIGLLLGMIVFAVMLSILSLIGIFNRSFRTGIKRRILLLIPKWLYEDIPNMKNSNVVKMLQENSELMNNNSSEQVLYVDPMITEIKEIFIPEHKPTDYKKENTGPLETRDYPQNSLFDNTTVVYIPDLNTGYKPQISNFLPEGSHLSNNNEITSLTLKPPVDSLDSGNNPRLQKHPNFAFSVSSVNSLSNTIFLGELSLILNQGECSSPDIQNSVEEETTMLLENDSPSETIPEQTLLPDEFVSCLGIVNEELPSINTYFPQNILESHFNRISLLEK

SMILES | EPSA [1] [A^2] | IC50 [2] [µM]
CC(=O)N(C)CCCC[C@@H]1NC(=O)[C@H](CC(C)C)NC(=O)[C@H]([C@@H](C)O)NC(=O)[C@H](CC(=O)N(C)C)NC(=O)[C@@H](NC(=O)CCOCCOCC[N+](C)(C)C)C(C)(C)SSC(C)(C)[C@@H](C(=O)N[C@@H](Cc2ccc(OCCCCC[N+](C)(C)C)cc2)C(=O)N[C@@H](Cc2ccc3ccccc3c2)C(=O)NC2(C(=O)N[C@@H](CCCCN(C)C(C)=O)C(=O)N[C@@H](CC(N)=O)C(=O)N[C@@H](Cc3cccnc3)C(=O)N(C)CC(=O)N(C)C)CCOCC2)NC1=O [compound 511, cPEG3aCO-Pen(3)-N(N(Me)2)-T-L-K(NMeAc)-Pen(3)-TMAPF-2Nal-THP-K(NMeAc)-N-3Pya-Sar-CONMe2] ({Me3N+(CH2)2O(CH2)2O(CH2)2CO}-[Pen]D(NMe2)TL[Lys(Me)](Ac)[Pen]Y(X3)[2Nal][Thp][Lys(Me)](Ac)N[3Pal][Sar]-NMe2; disulfide 1-6) | 198 | > 16.6
CC(=O)N(C)CCCC[C@@H]1NC(=O)[C@H](C)NC(=O)[C@H]([C@@H](C)O)NC(=O)[C@H](CC(=O)N(C)C)NC(=O)[C@@H](NC(=O)CCOCCOCC[N+](C)(C)C)C(C)(C)SSC(C)(C)[C@@H](C(=O)N[C@@H](Cc2ccc(OCCCCC[N+](C)(C)C)cc2)C(=O)N[C@@H](Cc2ccc3ccccc3c2)C(=O)NC2(C(=O)N[C@@H](CCCCN(C)C(C)=O)C(=O)N[C@@H](CC(N)=O)C(=O)N[C@@H](Cc3cccnc3)C(=O)N(C)CC(=O)N(C)C)CCOCC2)NC1=O [compound 512, cPEG3aCO-Pen(3)-N(N(Me)2)-T-A-K(NMeAc)-Pen(3)-TMAPF-2Nal-THP-K(NMeAc)-N-3Pya-Sar-CONMe2] ({Me3N+(CH2)2O(CH2)2O(CH2)2CO}-[Pen]D(NMe2)TA[Lys(Me)](Ac)[Pen]Y(X3)[2Nal][Thp][Lys(Me)](Ac)N[3Pal][Sar]-NMe2; disulfide 1-6) | 205 | > 7.35
CC(=O)NCCCC[C@@H]1NC(=O)[C@H](Cc2c[nH]c3c(-c4cccc(NC(C)=O)c4)cccc23)NC(=O)[C@H]([C@@H](C)O)NC(=O)[C@H](CC(N)=O)NC(=O)[C@@H](NC(C)=O)C(C)(C)SSC(C)(C)[C@@H](C(=O)N[C@@H](Cc2ccc(OCCNC(=N)N)cc2)C(=O)N[C@@H](Cc2ccc3ccccc3c2)C(=O)NC2(C(=O)N[C@@H](CCCCN(C)C(C)=O)C(=O)N[C@@H](CC(N)=O)C(=O)N[C@@H](Cc3cccnc3)C(=O)N(C)CC(N)=O)CCOCC2)NC1=O [compound 515, MeCO-Pen(3)-N-T-7(3NAcPh)W-K(Ac)-Pen(3)-AEF(G)-2Nal-THP-K(NMeAc)-N-3Pya-Sar-CONH2] | 197 | 0.0038
CC(=O)NCCCC[C@@H]1NC(=O)[C@H](Cc2c[nH]c3ccccc23)NC(=O)[C@H]([C@@H](C)O)NC(=O)[C@H](CC(N)=O)NC(=O)[C@@H](NC(=O)[C@H](CCCNC(=N)N)NC(=O)CCOCCOCC[N+](C)(C)C)CCSC[C@@](C)(C(=O)N[C@@H](Cc2ccc(OCCCCC[N+](C)(C)C)cc2)C(=O)N[C@@H](Cc2ccc3ccccc3c2)C(=O)NC2(C(=O)N[C@@H](CCC(=O)O)C(=O)N[C@@H](CC(N)=O)C(=O)N[C@@H](Cc3cccnc3)C(=O)N(C)CC(N)=O)CCOCC2)NC1=O [compound 516, cPEG3aCO-r-Abu(1)-N-T-W-K(Ac)-aMeC(1)-TMAPF-2Nal-THP-E-N-3Pya-Sar-CONH2] ({Me3N+(CH2)2O(CH2)2O(CH2)2CO}-R[Abu(4-yl)]NTWK(Ac)[αMeC]Y(X3)[2Nal][Thp]EN[3Pal][Sar]-NH2; thioether 2-7) | 237 | 0.05
CC(=O)NCCCC[C@@H]1NC(=O)[C@H](Cc2c[nH]c3ccccc23)NC(=O)[C@H]([C@@H](C)O)NC(=O)[C@H](CC(N)=O)NC(=O)[C@@H](NC(=O)[C@H](CCCC[N+](C)(C)C)NC(C)=O)CCSC[C@@](C)(C(=O)N[C@@H](Cc2ccc(OCCCCC[N+](C)(C)C)cc2)C(=O)N[C@@H](Cc2ccc3ccccc3c2)C(=O)NC2(C(=O)N[C@@H](CCCCNC(C)=O)C(=O)N[C@@H](CC(N)=O)C(=O)N[C@@H](Cc3cccnc3)C(=O)N(C)CC(N)=O)CCOCC2)NC1=O [compound 517, MeCO-k(Me)3-Abu(1)-N-T-W-K(Ac)-aMeC(1)-TMAPF-2Nal-THP-K(Ac)-N-3Pya-Sar-CONH2] (Ac-[Lys(Me3)][Abu(4-yl)]NTWK(Ac)[αMeC]Y(X3)[2Nal][Thp]K(Ac)N[3Pal][Sar]-NH2; thioether 2-7) | 241 | 0.051
CC(=O)NCCCC[C@@H]1NC(=O)[C@H](Cc2c[nH]c3ccccc23)NC(=O)[C@H]([C@@H](C)O)NC(=O)[C@H](CC(N)=O)NC(=O)[C@@H](NC(=O)[C@@H](CCCNC(=N)N)NC(=O)CCOCCOCC[N+](C)(C)C)CCSC[C@@](C)(C(=O)N[C@@H](Cc2ccc(OCCCCC[N+](C)(C)C)cc2)C(=O)N[C@@H](Cc2ccc3ccccc3c2)C(=O)NC2(C(=O)N[C@@H](CCCCNC(C)=O)C(=O)N[C@@H](CC(N)=O)C(=O)N[C@@H](Cc3cccnc3)C(=O)N(C)CC(N)=O)CCOCC2)NC1=O [compound 518, cPEG3aCO-r-Abu(1)-N-T-W-K(Ac)-aMeC(1)-TMAPF-2Nal-THP-K(Ac-N-3Pya-Sar-CONH2] ({Me3N+(CH2)2O(CH2)2O(CH2)2CO}-[dR][Abu(4-yl)]NTWK(Ac)[αMeC]Y(X3)[2Nal][Thp]K(Ac)N[3Pal][Sar]-NH2; thioether 2-7) | 230 | 0.018
CC(=O)NCCCC[C@@H]1NC(=O)[C@H](Cc2c[nH]c3c(-c4cccc(NC(C)=O)c4)cccc23)NC(=O)[C@H]([C@@H](C)O)NC(=O)[C@H](CC(N)=O)NC(=O)[C@@H](NC(=O)CCOCCOCC[N+](C)(C)C)C(C)(C)SSC(C)(C)[C@@H](C(=O)N[C@@H](Cc2ccc(OCCNC(=N)N)cc2)C(=O)N[C@@H](Cc2ccc3ccccc3c2)C(=O)NC2(C(=O)N[C@@H](CCCCN(C)C(C)=O)C(=O)N[C@@H](CC(N)=O)C(=O)N[C@@H](Cc3cncc(C)c3)C(=O)N(C)CC(N)=O)CCOCC2)NC1=O [compound 519, cPEG3aCO-Pen(3)-N-T-7(3NAcPh)W-K(Ac)-Pen(3)-AEF(G)-2Nal-THP-K(NMeAc)-N-3Pya-Sar-CONH2] | 186 | 0.0018
CC(=O)NCCCC[C@@H]1NC(=O)[C@H](Cc2c[nH]c3c(C)cccc23)NC(=O)[C@H]([C@@H](C)O)NC(=O)[C@H](CC(N)=O)NC(=O)[C@@H](NC(=O)CCOCCOCC[N+](C)(C)C)C(C)(C)SSC(C)(C)[C@@H](C(=O)N[C@@H](Cc2ccc(-n3cc(CCN)nn3)cc2)C(=O)N[C@@H](Cc2ccc3ccccc3c2)C(=O)NC2(C(=O)N[C@@H](CCCCNC(C)=O)C(=O)N[C@@H](CC(N)=O)C(=O)N[C@@H](Cc3cccnc3)C(=O)N(C)CC(N)=O)CCOCC2)NC1=O [compound 522, cPEG3aCO-Pen(3)-N-T-7MeW-K(Ac)-Pen(3)-F(4TzlAme2)-2Nal-THP-K(Ac)-N-3Pya-Sar-CONH2] ({Me3N+(CH2)2O(CH2)2O(CH2)2CO}-[Pen]NT[Trp(7-Me)]K(Ac)[Pen][X39][2Nal][Thp]K(Ac)N[3Pal][Sar]-NH2; disulfide 1-6) | 176 | 0.0016
